Drawing on patent publication US20230108906A1, “SUBSTITUTED BICYCLIC AND TRICYCLIC UREAS AND AMIDES, ANALOGUES THEREOF, AND METHODS USING SAME” (Arbutus Biopharma Corporation, priority 2019, published 2023), this text covers EC50 for 12 compounds.

The first test has as its system HBV rcDNA in HepDE19 cells. The test is described as follows: HepDE19 assay with bDNA quantitation of HBV rcDNA. The class given is cell-based, hepatitis B virus (HBV). Particulars: Hepatitis B virus, HepDE19, 168 h, inhibition of rcDNA formation in HepDE19 cells (HepG2 derived), Tet-free medium, 7 day incubation, Quantigene 2.0 bDNA readout, top concentration 25 μM; read-out: DE-19bDNA EC50. The gist of the method:
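Cytotoxicity run on replicate plates (5,000 cells/well, 4 days, ATP luminescence, CC50), while antiviral plates (50,000 cells/well) received compound for 7 days after tetracycline withdrawal to induce HBV replication. Top dose 25 μM, 8 points, 0.5% DMSO; rcDNA by branched-DNA assay, % inhibition fitted (4-parameter) for EC50 and EC90.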
What is called EC50 is the concentration needed to bring the measured effect to its halfway point. As to `CC(=O)N1Cc2[nH]c(=O)c3cc(F)ccc3c2C(N(C)C(=O)Nc2ccc(F)c(Cl)c2)C1` (single isomer, unassigned) [Compound 157, 1-(3-Acetyl-8-fluoro-6-oxo-1,2,3,4,5,6-hexahydrobenzo[c][1,7]naphthyridin-1-yl)-3-(3-chloro-4-fluorophenyl)-1-methylurea], the half-maximal effective concentration (EC50) worked out at 1200 nM.

`CN(C(=O)Nc1ccc(F)c(Cl)c1)[C@@H]1COCc2nc(OCCO)c3cc(F)c(F)cc3c21` [Compound 255, (S)-3-(3-Chloro-4-fluorophenyl)-1-(8,9-difluoro-6-(2-hydroxyethoxy)-1,4-dihydro-2H-pyrano[3,4-c]isoquinolin-1-yl)-1-methylurea]: the EC50 came out at 49 nM. As for `Cc1cc(NC(=O)N(C)[C@@H]2COCc3[nH]c(=O)c4cc(F)c(F)cc4c32)ccc1F` (single isomer, unassigned) [Compound 69], the 50% effective concentration (EC50) came out at 10 nM. Same read-out and setting: to `CN(C(=O)Nc1ccc(F)c(Cl)c1)C1CC(C)(C)Cc2[nH]c(=O)c3ccccc3c21` (stereo not drawn) [Compound 27, 3-(3-Chloro-4-fluorophenyl)-1-(3,3-dimethyl-6-oxo-1,2,3,4,5,6-hexahydrophenanthridin-1-yl)-1-methylurea] belongs 12000 nM; to `CCN(C(=O)Nc1ccc(F)c(Cl)c1)C1COCc2[nH]c(=O)c3ccc(F)cc3c21` (stereo not drawn) [Compound 74, 3-(3-Chloro-4-fluorophenyl)-1-ethyl-1-(9-fluoro-6-oxo-1,4,5,6-tetrahydro-2H-pyrano[3,4-c]isoquinolin-1-yl)urea], 20 nM.

Still in this test, the particulars now being: inhibition of rcDNA formation in HepDE19 cells (HepG2 derived), Tet-free medium, 7 day incubation, Quantigene 2.0 bDNA readout, top concentration 25 μM; read-out: DE-19bDNA EC50.
As for `O=C(Nc1ccc(F)c(Cl)c1)N(CCCO)C1COCc2[nH]c(=O)c3cc(F)ccc3c21` (single isomer, unassigned) [Compound 109, 3-(3-Chloro-4-fluorophenyl)-1-(8-fluoro-6-oxo-1,4,5,6-tetrahydro-2H-pyrano[3,4-c]isoquinolin-1-yl)-1-(3-hydroxypropyl)urea], the EC50 worked out at 620 nM. Regarding `CN1Cc2[nH]c(=O)c3cc(F)c(F)cc3c2C(N(C)C(=O)Nc2ccc(F)c(Cl)c2)C1` (single isomer, unassigned) [Compound 168, 3-(3-Chloro-4-fluorophenyl)-1-(8,9-difluoro-3-methyl-6-oxo-1,2,3,4,5,6-hexahydrobenzo[c][1,7]naphthyridin-1-yl)-1-methylurea], the EC50 amounted to 180 nM. For `CN(C(=O)Nc1ccc(F)c(C#N)c1)C1CNCc2[nH]c(=O)c3cc(F)ccc3c21` (single isomer, unassigned) [Compound 162, 3-(3-Cyano-4-fluorophenyl)-1-(8-fluoro-6-oxo-1,2,3,4,5,6-hexahydrobenzo[c][1,7]naphthyridin-1-yl)-1-methylurea], the EC50 turned out to be 170 nM. In the case of `CN(C(=O)Nc1ccc(F)c(Cl)c1)C1CCCc2[nH]c(=O)c3ccccc3c21` (single isomer, unassigned) [Compound 16, 3-(3-Chloro-4-fluorophenyl)-1-methyl-1-(6-oxo-1,2,3,4,5,6-hexahydrophenanthridin-1-yl)urea], the EC50 came to 760 nM. For the compound `CN(C(=O)N1Cc2ccc(Br)cc2C1)C1CNCc2[nH]c(=O)c3cc(F)c(F)cc3c21` (single isomer, unassigned) [Compound 228, 5-Bromo-N-(8,9-difluoro-6-oxo-1,2,3,4,5,6-hexahydrobenzo[c][1,7]naphthyridin-1-yl)-N-methylisoindoline-2-carboxamide], the EC50 amounted to 15000 nM.

On to `CN(C(=O)Nc1ccc(F)c(Cl)c1)C1CSCc2[nH]c(=O)c3cc(F)c(F)cc3c21` (single isomer, unassigned) [Compound 187, 3-(3-Chloro-4-fluorophenyl)-1-(8,9-difluoro-6-oxo-1,4,5,6-tetrahydro-2H-thiopyrano[3,4-c]isoquinolin-1-yl)-1-methylurea], for which the 50% effective concentration (EC50) was found to be 900 nM. `CN(C(=O)Nc1ccc(F)c(C#N)c1)C1CSCc2[nH]c(=O)c3cc(F)ccc3c21` (single isomer, unassigned) [Compound 185, 3-(3-Cyano-4-fluorophenyl)-1-(8-fluoro-6-oxo-1,4,5,6-tetrahydro-2H-thiopyrano[3,4-c]isoquinolin-1-yl)-1-methylurea]: the EC50 is 3300 nM.
